Measured values from ChEMBL document CHEMBL6127081, “Peptide inhibitors targeting Ras and Ras-associated protein-protein interactions” (Eur J Med Chem, 2024).
Where a SMILES comes first, the peptide text is derived from it. Bridges are numbered along the chain shown (N, C = ends). [ ]: non-standard residue; d: D form. hArg = N=C(N)NCCCC[C@H](N)C(=O)O; S5 = C=CCCC[C@](C)(N)C(=O)O

Legend:
GTPase HRas [1] = target: T1, GTPase HRas (Homo sapiens, UniProt P01112); experiment: Binding affinity to wild-type H-Ras (unknown origin) assessed as dissociation constant by fluorescence polarization assay
[2] = Inhibition of KRas Q61H mutant (unknown origin) by fluorescence polarization assay; parameters: species or system Homo sapiens
GTPase KRas [3] = target: T2, GTPase KRas (Homo sapiens, UniProt P01116, G12V); experiment: Inhibition of KRas G12V mutant (unknown origin) by fluorescence polarization assay
GTPase KRas [4] = target: GTPase KRas (Homo sapiens, UniProt P01116, G12S); experiment: Inhibition of KRas G12S mutant (unknown origin) by fluorescence polarization assay
GTPase KRas [5] = target: T3, GTPase KRas (Homo sapiens, UniProt P01116, G12D); experiment: Inhibition of KRas G12D mutant (unknown origin) by fluorescence polarization assay
GTPase KRas [6] = target: T4, GTPase KRas (Homo sapiens, UniProt P01116); experiment: Inhibition of recombinant wild-type KRas (unknown origin) by fluorescence polarization assay
GTPase KRas [7] = target: T5, GTPase KRas (Homo sapiens, UniProt P01116, G12C); experiment: Inhibition of KRas G12C mutant (unknown origin) by fluorescence polarization assay
GTPase KRas [8] = target: T3, GTPase KRas; experiment: Inhibition of human KRas G12D mutant incubated for 0.5 hrs by absorbance based analysis
NCI-H358 [9] = experiment: Cytotoxicity against human NCI-H358 cells measured after 72 hrs by CCK-8 method; type: functional, cell-based; details: NCI-H358, 72 h
NCI-H358 [10] = experiment: Cytotoxicity against human NCI-H358 cells measured after 48 hrs by CCK-8 method; type: functional, cell-based; details: NCI-H358, 48 h
NCI-H358 [11] = experiment: Cytotoxicity against human NCI-H358 cells measured after 36 hrs by CCK-8 method; type: functional, cell-based; details: NCI-H358, 36 h
GTPase KRas [12] = target: T5, GTPase KRas; experiment: Binding affinity to KRas G12C mutant (unknown origin) assessed as dissociation constant by biolayer interferometry assay
NCI-H358 [13] = experiment: Cytotoxicity against human NCI-H358 cells measured after 24 hrs by CCK-8 method; type: functional, cell-based; details: NCI-H358, 24 h
GTPase KRas [14] = target: T3, GTPase KRas; experiment: Inhibition of KRas G12D mutant (unknown origin) by TR-FRET assay
GTPase KRas [15] = target: T3, GTPase KRas; experiment: Binding affinity to KRas G12D mutant (unknown origin) assessed as dissociation constant by SPR analysis
SOS1-KRAS [16] = target: SOS1-KRAS (Homo sapiens, UniProt P01116, G12D); experiment: Inhibition of KRAS G12D mutant/SOS1 (unknown origin) interaction by TR-FRET assay; type: protein-complex assay
GTPase KRas [17] = target: T4, GTPase KRas; experiment: Binding affinity to KRas (unknown origin) assessed as dissociation constant
GTPase HRas [18] = target: T1, GTPase HRas; experiment: Binding affinity to HRas (unknown origin) assessed as dissociation constant
GTPase KRas [19] = target: T4, GTPase KRas; experiment: Binding affinity to GppNHp bound KRas (unknown origin) assessed as dissociation constant by fluorescence anisotropy assay
GTPase KRas [20] = target: T4, GTPase KRas; experiment: Binding affinity to GTP bound KRas (unknown origin) assessed as dissociation constant by fluorescence anisotropy assay
SOS1-KRAS [21] = target: T6, SOS1-KRAS (Homo sapiens, UniProt P01116); experiment: Binding affinity to his-tagged N-terminal GDP-bound KRas (1 to 166 residues)/his-tagged catalytic domain SOS (564 to 1049 residues) (unknown origin) interaction extracted from Escherichia coli (BL21) assessed as dissociation constant by fluorescence polarization assay; type: protein-complex assay
SOS1-KRAS [22] = target: T6, SOS1-KRAS; experiment: Binding affinity to his-tagged N-terminal KRas (1 to 166 residues)/his-tagged catalytic domain SOS (564 to 1049 residues) (unknown origin) interaction extracted from Escherichia coli (BL21) assessed as dissociation constant by fluorescence polarization assay; type: protein-complex assay
SOS1-KRAS [23] = target: T6, SOS1-KRAS; experiment: Inhibition of his-tagged N-terminal GDP-bound KRas (1 to 166 residues)/his-tagged catalytic domain SOS (564 to 1049 residues) (unknown origin) interaction extracted from Escherichia coli (BL21) by fluorescence based spectroflurometric analysis; type: protein-complex assay
GTPase KRas/RAF1 = GTPase KRas/RAF1 (Homo sapiens, UniProt P01116); experiment: Inhibition of KRAS/RAF interaction (unknown origin); type: protein assay
[24] = target: Epidermal growth factor receptor (Homo sapiens) (UniProt P00533); experiment: Inhibition of EGFR in human NCI-H1299 cells assessed as inhibition in Akt phosphorylation relative to control; type: cell-based; details: concentration not given here
GTPase KRas [25] = target: T4, GTPase KRas; experiment: Binding affinity to KRas (unknown origin) assessed as apparent dissociation constant by fluorescence anisotropy analysis; details: read-out: Kd(app)
GTPase KRas [26] = target: T2, GTPase KRas; experiment: Binding affinity to KRas G12V mutant (unknown origin) assessed as apparent dissociation constant by fluorescence anisotropy analysis; details: read-out: Kd(app)
[27] = Binding affinity to GDP bound RAF (unknown origin) assessed as dissociation constant; parameters: species or system Homo sapiens
[28] = target: Epidermal growth factor receptor (Homo sapiens) (UniProt P00533); experiment: Inhibition of EGFR in human NCI-H1299 cells assessed as inhibition in MEK phosphorylation relative to control; type: cell-based; details: concentration not given here

C=CS(=O)(=O)NCCCC(=O)NCCCC[C@H](NC(=O)[C@H](CC(C)C)NC(=O)C[C@@H](CC(=O)O)NC(=O)[C@H](CC(C)C)NC(=O)[C@H](CCCNC(=N)N)NC(=O)[C@H](Cc1ccc(O)cc1)NC(=O)CC(C)(CC)NC(=O)CN1C/C=C\CCCC(=O)N[C@@H](Cc2ccccc2)C(=O)N[C@@H](CCC(=O)O)C1=O)C(=O)N[C@@H](CCCCN)C(=O)NCCC(=O)N[C@@H](CCC(=O)O)C(=O)N[C@@H](CCC(=O)O)C(=O)N[C@@H](C)C(=O)N[C@@H](CC(N)=O)C(N)=O (stereo not given in full)
Kd (GTPase HRas [1]): 4.1 µM

CC[C@H](C)[C@H](NC(=O)CNC(=O)[C@H](Cc1ccccc1)NC(=O)[C@H](Cc1ccccc1)NC(=O)[C@H](CCCNC(=N)N)NC(=O)[C@H](CCCNC(=N)N)NC(C)=O)C(=O)N[C@@]1(C)CCC/C=C\CCC[C@@](C)(C(=O)N[C@@H](CC(C)C)C(=O)N[C@@H](CCCCN)C(=O)N[C@H](C(=O)N[C@@H](CCC(=O)O)C(=O)N[C@@H](CCC(=O)O)C(=O)NCC(=O)N[C@@H](CC(N)=O)C(N)=O)[C@@H](C)O)NC(=O)[C@H](CC(N)=O)NC(=O)[C@H]([C@@H](C)O)NC(=O)[C@H](CC(C)C)NC1=O
IC50 [2]: 5 µM | IC50 (GTPase KRas [3]): 5 µM | IC50 (GTPase KRas [4]): 5 µM | IC50 (GTPase KRas [5]): 5 µM | IC50 (GTPase KRas [6]): 5 µM | IC50 (GTPase KRas [7]): 5 µM

CCCCCCC[C@@H]1NC(=O)[C@H](CO)NC(=O)[C@H](Cc2ccc(F)cc2)NC(=O)[C@H](CC(=O)O)NC(=O)[C@@H]2CCCN2C(=O)[C@H](Cc2c[nH]c3ccccc23)NC(=O)[C@H]2CSCCCSC[C@H](NC1=O)C(=O)N[C@@H](CCCC)C(=O)NCCC(=O)N2
EC50 (GTPase KRas [8]): 0.022 µM

CC[C@H](C)[C@H](NC(=O)CNC(=O)[C@H](Cc1ccccc1)NC(C)=O)C(=O)N[C@@]1(C)CCC/C=C\CCC[C@@](C)(C(=O)N[C@@H](CC(C)C)C(=O)N[C@@H](CCCCN)C(=O)N[C@H](C(N)=O)[C@@H](C)O)NC(=O)[C@H](CC(N)=O)NC(=O)[C@H]([C@@H](C)O)NC(=O)[C@H](CC(C)C)NC1=O (Ac-FGI[S5]LTN[S5]LKT-NH2; staple (Z) 4-8)
IC50 (NCI-H358 [9]): 6.68 µM | IC50 (NCI-H358 [10]): 5.75 µM | IC50 (NCI-H358 [11]): 7.55 µM | Kd (GTPase KRas [12]): 7.67 µM | IC50 (NCI-H358 [13]): 15.7 µM

CC[C@H](C)[C@@H]1NC(=O)[C@H](Cc2ccc(O)cc2)NC(=O)[C@H](CC(C)C)NC(=O)[C@@H]2CCCN2C(=O)[C@@H](NC(=O)[C@H](CCCNC(=N)N)NC(=O)[C@H](CCCNC(=N)N)NC(C)=O)CSSC[C@@H](C(=O)N[C@@H](CCCNC(=N)N)C(=O)N[C@@H](CCCNC(=N)N)C(N)=O)NC(=O)[C@H](C(C)C)NC(=O)[C@@H]2CCCN2C(=O)[C@H](CC(=O)O)NC(=O)[C@H](Cc2ccc(O)cc2)NC(=O)[C@H](CO)NC1=O (Ac-RRCPLYISYDPVCRR-NH2; disulfide 3-13)
IC50 (GTPase KRas [14]): 0.0089 µM | Kd (GTPase KRas [15]): 0.051 µM

CC[C@H](C)[C@H](NC(=O)[C@H](Cc1c[nH]c2ccccc12)NC(C)=O)C(=O)NCC(=O)N[C@@H](CCCNC(=N)N)C(=O)N[C@@H](CC(C)C)C(=O)N[C@@H](CC(C)C)C(=O)N[C@H](C(=O)N[C@@]1(C)CCC/C=C\CCC[C@@](C)(C(=O)N[C@@H](CCCNC(=N)N)C(=O)N[C@@H](CC(N)=O)C(=O)NCC(=O)N[C@@H](CC(N)=O)C(N)=O)NC(=O)[C@H](CC(C)C)NC(=O)[C@H](CCCCNC(=N)N)NC(=O)[C@H](CCCNC(=N)N)NC1=O)[C@@H](C)O (Ac-WIGRLLT[S5]R[hArg]L[S5]RNGN-NH2; staple (Z) 8-12)
IC50 (SOS1-KRAS [16]): 0.016 µM | Kd (GTPase KRas [17]): 3.92 µM | Kd (GTPase HRas [18]): 3.92 µM

CC(C)[C@H]1NC(=O)[C@H](CCCNC(=N)N)NC(=O)[C@@H](Cc2ccccc2)NC(=O)[C@@H]2CCCCNC(=O)c3cc(cc(c3)C(=O)N[C@H](Cc3ccc4ccccc4c3)C(=O)N[C@@H](CO)C(=O)N[C@@H](CCC(N)=O)C(=O)N[C@H](Cc3ccc4ccccc4c3)C(=O)N[C@@H](c3ccccc3)C(=O)N2)C(=O)NC[C@@H](C(N)=O)NC(=O)[C@H](CCCNC(=N)N)NCC1=O
Kd (GTPase KRas [19]): 1.6 µM | Kd (GTPase KRas [20]): 1.2 µM

CC[C@H](C)[C@H](NC(=O)CN1C/C=C\CCC(=O)N[C@@H](Cc2ccccc2)C(=O)N[C@@H](CCC(=O)O)C1=O)C(=O)N[C@@H](Cc1ccc(O)cc1)C(=O)N[C@@H](CCCNC(=N)N)C(=O)N[C@@H](CC(C)C)C(=O)N[C@@H](CCC(=O)O)C(=O)N[C@@H](CC(C)C)C(=O)N[C@@H](CC(C)C)C(=O)N[C@@H](CCCCN)C(=O)N[C@@H](C)C(=O)N[C@@H](CCC(=O)O)C(=O)N[C@@H](CCC(=O)O)C(=O)N[C@@H](C)C(=O)N[C@@H](CC(N)=O)C(N)=O
Kd (SOS1-KRAS [21]): 158 µM | Kd (SOS1-KRAS [22]): 28 µM | IC50 (SOS1-KRAS [16]): 0.64 µM | IC50 (SOS1-KRAS [23]): 6.9 µM

CC[C@H](C)[C@@H]1NC(=O)[C@H](Cc2cn(CCc3c(C)[nH]c4cc(Cl)cc(Cl)c34)nn2)NC(=O)[C@H](CC(N)=O)NC(=O)[C@H](CCCNC(=N)N)NC(=O)[C@H](Cc2ccccc2)NC(=O)[C@H](CC(C)C)NC(=O)[C@H](C)NC(=O)c2cc3cc(c2)C(=O)NC[C@@H](C(N)=O)NC(=O)[C@H](CCCNC(=N)N)NC(=O)[C@H](CCCNC(=N)N)NC(=O)[C@H](CCCNC(=N)N)NC(=O)[C@H](CCCNC(=N)N)NC(=O)[C@H](Cc2ccc4ccccc4c2)NC(=O)[C@H](Cc2ccccc2)NC(=O)[C@H](CCCCNC3=O)NC1=O
IC50 (GTPase KRas/RAF1): 3.4 µM | inhibition [24]: 60% | Kd (GTPase KRas [25]): 0.21 µM | Kd (GTPase KRas [26]): 17 µM | Kd [27]: 0.37 µM | inhibition [28]: 50%
